Laboratory results reported in US12018021B2 (UCB Biopharma SRL, priority 2018, dated 2024).

The compounds below were run against IgE-Tb / FcεRIα-Y131A-AF488 (Homo sapiens, UniProt P01854) (assay: IgE-Tb / FcεRIα-Y131A-AF488 FRET assay (protocol for examples 1 to 233)). Conditions: examples 1 to 233: 5 nM IgE-Tb, 25 nM FcεRIα-Y131A-AF488, incubated 2 hours at room temperature; read-out: Y131A FRET IC50 range.
Type: binding
Protocol: For examples 1 to 233, the assay was conducted according to the following: Each assay reaction was conducted in a volume of 25 μl in a 384-well half-volume plate. 10 point compound serial dilutions (3-fold) were generated in DMSO at a concentration of ×50 that of the final assay concentration (FAC). Compound solutions were then prepared by IgE-Tb diluting 10-fold in assay buffer. For the assay, 5 μl of diluted compound was added to 10 μl of, followed by addition of 10 μl FcεRIα-Y131A-AF488. FRET reagents FACs were 5 nM IgE-Tb, 25 nM FcεRIα-Y131A-AF488. Usually the top FAC of compound in the assay was 10 μM. The final DMSO concentration was 2%. The minimum signal (MIN) was measured by adding 5l unlabelled FcεRIα at 1 μM (FAC=200 nM) to the FRET reagents. The maximum FRET signal (MAX) was measured in wells containing FRET reagents but no compound. The assay was incubated for 2 hours at room temperature, protected from light and evaporation, and with gentle agitation.
Measurement of FRET for each well was carried out by exciting at 330 nm and measuring emission at 495/520 nm using an Envision plate reader (Perkin Elmer). FRET ratio was calculated as follows: Emission at 520/Emission at 495×1000.
The FRET ratio was used for the data analysis.
Z′ was calculated as follows (σ=standard deviation and μ=mean): 1−((3×σMAX)+(3×σMIN))/(μMAX−μMIN)
Z′ above 0.5 was considered a good assay.
Background signal (MIN) was subtracted from all wells. Using the background subtracted values, the percent inhibition by compound in each test-well was calculated as follows: 100−Test-well FRET ratio/MAX FRET ratio×100.
Percent inhibition was plotted against compound concentration. IC50 values for each compound were determined using four parameter logistic fit model using the XLFIT5 software package.

Chain of IgE-Tb / FcεRIα-Y131A-AF488 (P01854 1-427 limits assumed, stated change not applied): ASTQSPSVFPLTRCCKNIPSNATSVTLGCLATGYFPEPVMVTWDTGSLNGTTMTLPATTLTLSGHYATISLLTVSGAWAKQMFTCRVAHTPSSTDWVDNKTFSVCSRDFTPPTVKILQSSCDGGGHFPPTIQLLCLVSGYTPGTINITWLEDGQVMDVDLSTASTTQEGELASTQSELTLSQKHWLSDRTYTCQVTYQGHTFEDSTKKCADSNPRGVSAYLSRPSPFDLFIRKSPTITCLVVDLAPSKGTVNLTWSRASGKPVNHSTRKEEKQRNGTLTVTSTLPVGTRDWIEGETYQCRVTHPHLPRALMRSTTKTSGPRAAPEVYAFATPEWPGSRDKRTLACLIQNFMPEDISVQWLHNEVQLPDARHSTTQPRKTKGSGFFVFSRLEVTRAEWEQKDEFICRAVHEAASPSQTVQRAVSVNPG

Compound | IC50
NS(=O)(=O)c1cccc(NC(=O)C2CCc3sc(NC(=O)C4CC4)c(S(=O)(=O)NCC4CC4)c3C2)c1 (stereo not drawn) [Example 33, 2-(Cyclopropanecarbonylamino)-3-(cyclopropylmethylsulfamoyl)-N-(3-sulfamoylphenyl)-4,5,6,7-tetrahydrobenzothiophene-5-carboxamide] | < 1 µM
CS(=O)(=O)c1cccc(NC(=O)C2CCc3sc(NC(=O)C4CC4)c(S(=O)(=O)NCC4CC4)c3C2)c1 (stereo not drawn) [Example 34, 2-(Cyclopropanecarbonylamino)-3-(cyclopropylmethylsulfamoyl)-N-(3-methylsulfonylphenyl)-4,5,6,7-tetrahydrobenzothiophene-5-carboxamide] | < 1 µM
O=C(Nc1cccc(-c2ccno2)c1)C1CCc2sc(NC(=O)C3CC3)c(S(=O)(=O)NCC3CC3)c2C1 (stereo not drawn) [Example 35, 2-(Cyclopropanecarbonylamino)-3-(cyclopropylmethylsulfamoyl)-N-(3-isoxazol-5-ylphenyl)-4,5,6,7-tetrahydrobenzothiophene-5-carboxamide] | < 1 µM
CCOc1c(NC2CCc3sc(NC(=O)C4CC4)c(S(=O)(=O)NCC4CC4)c3C2)c(=O)c1=O (stereo not drawn) [Example 36, N-[3-(Cyclopropylmethylsulfamoyl)-5-[(2-ethoxy-3,4-dioxo-cyclobuten-1-yl)amino]-4,5,6,7-tetrahydrobenzothiophen-2-yl]cyclopropanecarboxamide] | < 1 µM
CCNc1c(NC2CCc3sc(NC(=O)C4CC4)c(S(=O)(=O)NCC4CC4)c3C2)c(=O)c1=O (stereo not drawn) [Example 37, N-[3-(Cyclopropylmethylsulfamoyl)-5-[[2-(ethylamino)-3,4-dioxo-cyclobuten-1-yl]amino]-4,5,6,7-tetrahydrobenzothiophen-2-yl]cyclopropanecarboxamide] | < 1 µM
CCCCS(=N)(=O)c1c(NC(=O)C2CC2)sc2c1CCCC2 (stereo not drawn) [Example 38, N-[3-(Butylsulfonimidoyl)-4,5,6,7-tetrahydrobenzothiophen-2-yl]cyclopropanecarboxamide] | 1 to 10 µM
CCOC(=O)C1CCc2sc(NC(=O)C3CC3)c(C(=O)NCC3CC3)c2C1 (stereo not drawn) [Example 39, Ethyl 2-(cyclopropanecarbonylamino)-3-(cyclopropylmethylcarbamoyl)-4,5,6,7-tetrahydrobenzothiophene-5-carboxylate] | 1 to 10 µM
O=C(NCC1CC1)c1c(NC(=O)C2CC2)sc2c1CC(C(=O)O)CC2 (stereo not drawn) [Example 40, 2-(Cyclopropanecarbonylamino)-3-(cyclopropylmethylcarbamoyl)-4,5,6,7-tetrahydrobenzothiophene-5-carboxylic acid] | 10 to 50 µM
O=C1NCc2cc(NC(=O)C3CCc4sc(NC(=O)C5CC5)c(C(=O)NCC5CC5)c4C3)ccc21 (stereo not drawn) [Example 41, 2-(Cyclopropanecarbonylamino)-N3-(cyclopropylmethyl)-N5-(1-oxoisoindolin-5-yl)-4,5,6,7-tetrahydrobenzothiophene-3,5-dicarboxamide] | < 1 µM
O=C1CC(c2cccc(NC(=O)C3CCc4sc(NC(=O)C5CC5)c(C(=O)NCC5CC5)c4C3)c2)CN1 (stereo not drawn) [Example 42, 2-(Cyclopropanecarbonylamino)-N3-(cyclopropylmethyl)-N5-[3-(5-oxopyrrolidin-3-yl)phenyl]-4,5,6,7-tetrahydrobenzothiophene-3,5-dicarboxamide] | < 1 µM
CC1=NN(c2cccc(NC(=O)C3CCc4sc(NC(=O)C5CC5)c(C(=O)NCC5CC5)c4C3)c2)C(=O)C1 (stereo not drawn) [Example 43, 2-(Cyclopropanecarbonylamino)-N3-(cyclopropylmethyl)-N5-[3-(3-methyl-5-oxo-4H-pyrazol-1-yl)phenyl]-4,5,6,7-tetrahydrobenzothiophene-3,5-dicarboxamide] | < 1 µM
O=C(NCC1CC1)c1c(NC(=O)C2CC2)sc2c1CC(C(=O)Nc1cccc3[nH]ncc13)CC2 (stereo not drawn) [Example 44, 2-(Cyclopropanecarbonylamino)-N3-(cyclopropylmethyl)-N5-(1H-indazol-4-yl)-4,5,6,7-tetrahydrobenzothiophene-3,5-dicarboxamide; 2,2,2-trifluoroacetic acid] | < 1 µM
O=C(NCC1CC1)c1c(NC(=O)C2CC2)sc2c1CC(C(=O)Nc1ccc3[nH]ncc3c1)CC2 (stereo not drawn) [Example 45, 2-(Cyclopropanecarbonylamino)-N3-(cyclopropylmethyl)-N5-(1H-indazol-5-yl)-4,5,6,7-tetrahydrobenzothiophene-3,5-dicarboxamide; 2,2,2-trifluoroacetic acid] | < 1 µM
O=C(NCC1CC1)c1c(NC(=O)C2CC2)sc2c1CC(c1nc3nccnc3[nH]1)CC2 (stereo not drawn) [Example 46, 2-(Cyclopropanecarbonylamino)-N-(cyclopropylmethyl)-5-(1H-imidazo[4,5-b]pyrazin-2-yl)-4,5,6,7-tetrahydrobenzothiophene-3-carboxamide] | < 1 µM
O=C(NCC1CC1)c1c(NC(=O)C2CC2)sc2c1CC(C(=O)NC1Cc3ccccc3C1)CC2 (stereo not drawn) [Example 47, 2-(Cyclopropanecarbonylamino)-N3-(cyclopropylmethyl)-N5-indan-2-yl-4,5,6,7-tetrahydrobenzothiophene-3,5-dicarboxamide] | < 1 µM
COc1ccc(CCNC(=O)C2CCc3sc(NC(=O)C4CC4)c(C(=O)NCC4CC4)c3C2)cc1 (stereo not drawn) [Example 48, 2-(Cyclopropanecarbonylamino)-N3-(cyclopropylmethyl)-N5-[2-(4-methoxyphenyl)ethyl]-4,5,6,7-tetrahydrobenzothiophene-3,5-dicarboxamide] | < 1 µM
O=C(NCC1CC1)c1c(NC(=O)C2CC2)sc2c1CC(C(=O)Nc1ccc3nccnc3c1)CC2 (stereo not drawn) [Example 49, 2-(Cyclopropanecarbonylamino)-N3-(cyclopropylmethyl)-N5-quinoxalin-6-yl-4,5,6,7-tetrahydrobenzothiophene-3,5-dicarboxamide] | < 1 µM
O=C(NCC1CC1)c1c(NC(=O)C2CC2)sc2c1CC(C(=O)Nc1nccs1)CC2 (stereo not drawn) [Example 50, 2-(Cyclopropanecarbonylamino)-N3-(cyclopropylmethyl)-N5-thiazol-2-yl-4,5,6,7-tetrahydrobenzothiophene-3,5-dicarboxamide] | < 1 µM
O=C(NCC1CC1)c1c(NC(=O)C2CC2)sc2c1CC(C(=O)Nc1nnn[nH]1)CC2 (stereo not drawn) [Example 51, 2-(Cyclopropanecarbonylamino)-N3-(cyclopropylmethyl)-N5-(1H-tetrazol-5-yl)-4,5,6,7-tetrahydrobenzothiophene-3,5-dicarboxamide] | < 1 µM
O=C(NCC1CC1)c1c(NC(=O)C2CC2)sc2c1CC(C(=O)Nc1ccncc1)CC2 (stereo not drawn) [Example 52, 2-(Cyclopropanecarbonylamino)-N3-(cyclopropylmethyl)-N5-(4-pyridyl)-4,5,6,7-tetrahydrobenzothiophene-3,5-dicarboxamide] | < 1 µM
O=C(NCC1CC1)c1c(NC(=O)C2CC2)sc2c1CC(C(=O)Nc1cnccn1)CC2 (stereo not drawn) [Example 53, 2-(Cyclopropanecarbonylamino)-N3-(cyclopropylmethyl)-N5-pyrazin-2-yl-4,5,6,7-tetrahydrobenzothiophene-3,5-dicarboxamide] | < 1 µM
O=C(NCC1CC1)c1c(NC(=O)C2CC2)sc2c1CC(C(=O)Nc1cccnc1)CC2 (stereo not drawn) [Example 54, 2-(Cyclopropanecarbonylamino)-N3-(cyclopropylmethyl)-N5-(3-pyridyl)-4,5,6,7-tetrahydrobenzothiophene-3,5-dicarboxamide] | < 1 µM
O=C(NCC1CC1)c1c(NC(=O)C2CC2)sc2c1CC(C(=O)N1CC(O)C1)CC2 (stereo not drawn) [Example 55, 2-(Cyclopropanecarbonylamino)-N-(cyclopropylmethyl)-5-(3-hydroxyazetidine-1-carbonyl)-4,5,6,7-tetrahydrobenzothiophene-3-carboxamide] | 10 to 50 µM
O=C(NCC1CC1)c1c(NC(=O)C2CC2)sc2c1CC(C(=O)N1CCS(=O)(=O)CC1)CC2 (stereo not drawn) [Example 56, 2-(Cyclopropanecarbonylamino)-N-(cyclopropylmethyl)-5-(1,1-dioxo-1,4-thiazinane-4-carbonyl)-4,5,6,7-tetrahydrobenzothiophene-3-carboxamide] | 10 to 50 µM
O=C(NCC1CC1)c1c(NC(=O)C2CC2)sc2c1CC(C(=O)NCCc1ccc(O)cc1)CC2 (stereo not drawn) [Example 57, 2-(Cyclopropanecarbonylamino)-N3-(cyclopropylmethyl)-N5-[2-(4-hydroxyphenyl)ethyl]-4,5,6,7-tetrahydrobenzothiophene-3,5-dicarboxamide] | < 1 µM
O=C(NCC1CC1)c1c(NC(=O)C2CC2)sc2c1CC(C=NO)CC2 (stereo not drawn) [Example 58, 2-(cyclopropanecarbonylamino)-N-(cyclopropylmethyl)-5-(hydroxyiminomethyl)-4,5,6,7-tetrahydrobenzothiophene-3-carboxamide] | 1 to 10 µM
CCn1cnnc1NCC1CCc2sc(NC(=O)C3CC3)c(C(=O)NCC3CC3)c2C1 (stereo not drawn) [Example 59, 2-(Cyclopropanecarbonylamino)-N-(cyclopropylmethyl)-5-[[(4-ethyl-1,2,4-triazol-3-yl)amino]methyl]-4,5,6,7-tetrahydrobenzothiophene-3-carboxamide] | < 1 µM
